# Measured values reported in a melting point compilation (Tetko et al.; mined from patent text by program, amines drawn as free bases though some values may be those of a salt).
row,SMILES,melting point [°C]
1,CC(C)n1cnc2c(Nc3cccc(Cl)c3)nc(Cl)nc21,128 to 129
2,Cc1nc(-n2ccc(OCc3ccc(F)cc3)cc2=O)sc1C(=O)NCc1cccnc1,231 to 233
3,CCCCC#CCCOc1cc(/C=C/C(=O)Nc2ccccc2C(=O)O)ccc1OC,157 to 158
4,S=C(NCc1cccc(Cl)c1)N1CCc2c([nH]c3ccccc23)C1c1ccc2c(c1)OCO2 (stereo not given),189 to 191
5,COCc1nc(N)nc(SC)n1,134 to 136
6,O=C(O)c1ccc(CCCC2SCC(=O)N2CCC2(O)CCCC2)cc1 (stereo not given),149 to 150
7,Cn1cc(O)c(=O)c2cc(F)c(F)cc21,264 to 265
8,COCOc1ccc(COc2cc3c(cc2-c2cc(C=CC(=O)O)ccc2OC)C(C)(C)CCC3(C)C)cc1,106 to 108
9,CC(=O)OCc1nc2ccc(Oc3cc(C)c(OC(C)=O)c(C)c3C)nc2n1C,128 to 129
10,O=C1CCCCN1Cc1ccc(CCn2cnc3cc(-c4ccc(F)cc4)sc3c2=O)cc1,216 to 217
11,CCSC(C)(C)C(=O)CC(=O)Nc1cc(NC(=O)C(CC)Oc2ccc(C(C)(C)CC)cc2C(C)(C)CC)ccc1OC (stereo not given),65 to 67
12,COc1ccccc1-c1ncc(-c2nnn[nH]2)c(=O)[nH]1,282 to 283
13,O=C(NN=CC(F)(F)C(F)(F)F)c1nc(Oc2cccc(C(F)(F)F)c2)ccc1Cl,130 to 131
14,O=[N+]([O-])c1ccc2c(c1)OC(CO)CO2 (stereo not given),132 to 135
15,CCC(=O)NC1Cc2ccccc2C(Cc2ccccc2)C1 (stereo not given),148 to 149
16,CCOP(=O)(OCC)c1cc2cc(S(=O)(=O)Cl)c(Cl)cc2[nH]c1=O,190 to 200
17,COc1cc(OC)n2nc(N)nc2n1,215 to 220
18,O=c1ccc(-c2ccc(Oc3ccc4c(c3)CCN(C3CCC3)CC4)nc2)n[nH]1,215 to 220
19,C=C(C)CO[C@H]1[C@H](C)OC(=O)[C@@H](NC(=O)c2nccc(OC)c2OCOC(C)=O)COC(=O)[C@@H]1Cc1ccccc1,102 to 104
20,CCC(I)CCCC(F)(F)C(F)(F)C(F)(F)C(F)(F)C(F)(F)C(F)(F)C(F)(F)C(F)(F)F (stereo not given),46 to 47
21,CCCCc1ncc(/C=C(\Cc2cccs2)C(=O)O)n1CCc1ccc(CC(=O)O)cc1,169 to 171
22,COc1cc(C(=O)Nc2cc(Oc3ccc4nc(NC(=O)C5CC5)cn4n3)ccc2C)n(C)n1,224
23,COc1ccc(-c2c(N)oc3c(C(C)(C)C)cc(C(C)(C)C)cc23)cc1OC,172 to 174
24,COc1cc2c(cc1OC)C(C)=[N+]([O-])CN2,161 to 163

row,SMILES,melting point [°C]
1,Cc1oc2cc(CO)ccc2c1C,78 to 79
2,COC(=O)C=C(C)c1ccc(CCNCC(O)c2ccccc2)cc1 (stereo not given),120 to 125
3,O=C(Nc1ccc(-n2nc(C(F)(F)F)cc2C(F)(F)F)cc1)c1ccc([N+](=O)[O-])cc1,185 to 188
4,O=C(Cn1nccc1-c1ccc(Oc2ccc(F)cc2)cc1)N1CCOCC1,122 to 124
5,CCOc1ccc(C(OC2CCN(CCCCCC(=O)O)CC2)c2ccccc2)cc1 (stereo not given),110 to 112
6,COc1c(C=CC(=O)c2ccc(O)cc2)ccc(O)c1C,185 to 187
7,CC(C)CC(NC(=O)C(C)NC(=O)C(CC(=O)N1CCOCC1)Cc1cccc2ccccc12)C(O)C(=O)OC(C)C (mixture of isomers),178 to 183
8,O=S1(=O)c2ccccc2-n2c(Cl)nnc21,218 to 220
9,O=S(=O)(c1ccc(F)cc1)C(F)(F)C(F)(F)C(F)(F)C(F)(F)C(F)(F)C(F)(F)C(F)(F)C(F)(F)S(=O)(=O)c1ccc(F)cc1,109 to 110
10,CCCn1cc(C2(c3cccc(-c4cccnc4F)c3)N=C(N)N(C)C2=O)cc1C(=O)CC (stereo not given),118
11,Nc1ccn(CC2CC2)c(=O)n1,264 to 266
12,CCCN(SCNC(=O)ON=C(C)SC)P(=S)(OCC)OCC,68 to 69
13,CCCCCCCCCCCCC(=O)/C=C/C(=O)O,97.5 to 98.5
14,O=C(c1cccs1)N1CCCC1,66 to 68
15,COC(=O)C1=C(C)NN=C(C(=O)OC2CCCC2)C1c1ccccc1Cl (stereo not given),152
16,COc1cc(OC)c2c(=O)[nH]c(-c3cc(C)c(OCCN4CCN(C)CC4)c(C)c3)nc2c1,180 to 182
17,COCCOc1cc(NC(=O)OC(C)(C)C)c(NC(=O)CC(=O)c2cccc(I)c2)cc1C#Cc1ccccc1,172
18,O=c1n(CCC#Cc2cccc(CF)n2)nc2ccccn12,106 to 107
19,O=c1[nH]nccc1-c1ccccc1OC(F)(F)C(F)F,178
20,Clc1ccc2c(c1)CCC(c1ccccc1)O2 (stereo not given),71 to 72
21,O=C(OCC1OC(n2cc(I)c(=O)[nH]c2=O)C(F)C1OC(=O)c1ccccc1)c1ccccc1 (stereo not given),197
22,C=CCOC(=O)Nc1cc(-c2cccc(Cl)c2)sc1C(C)(C)O,60 to 61
23,CCCc1nc(N2CCOCC2)nc(N(CCOC(C)=O)C(C)=O)n1,49 to 50
24,Cc1cc2oc(S(N)(=O)=O)cc2cn1,233 to 234

row,SMILES,melting point [°C]
1,CNC(=O)c1cc2ccc(OC)cc2n1CCNC(C)=O,177 to 178
2,O=c1nc(-c2cccc(CO)n2)sc2ccccc12,208 to 209
3,CCn1c2ccccc2c2c3c(ccc21)c(C=O)cn3C,144 to 146
4,COC(=O)c1ccc(OCC(C)=O)c(C(=O)OC)c1,115 to 116
5,CCON=Cc1cc(-n2c(=O)n(C)c(=S)n(C)c2=O)ccc1Cl,139 to 141
6,CCNC(=O)n1nc(Oc2c(Cl)cc(C(F)(F)F)cc2Cl)cc1CC(=O)OCC,100 to 102
7,COc1cc(/C=C/c2cc(/C=C/c3ccc4cc[nH]c4c3)n[nH]2)ccc1OCc1ccccn1,236 to 243
8,Cn1ccc(NC(=O)Nc2cccc3c2C2CCCCN2C3=O)n1 (stereo not given),233
9,CN1CCN(c2ccc3c(ccc4c(=O)cc(C(=O)Nc5ccc(N6CCOCC6)cc5)oc43)c2)CC1,217 to 218
10,CCCCCN1CC[C@@H](c2ccccc2C(F)(F)F)[C@H](CO)C1 (racemic),110
11,COC(=O)c1cc(C(C)=O)c(C(F)(F)F)cc1N,118 to 121
12,O=C(NC1CCC1)c1ccc2nonc2c1,175 to 176
13,C[C@@H](n1cnc2cc(-c3ccc(C#N)cc3)sc2c1=O)[C@](O)(Cn1cncn1)c1ccc(Cl)cc1Cl,133 to 138
14,CCCCCc1c(C(C)C)nc(C(C)C)c(CO)c1-c1ccc(OC)cc1,47 to 49
15,CN(C)CCCSc1cccc2c1NC(=O)CC2c1ccccc1 (stereo not given),64 to 66
16,Nc1cccc(Cn2c(-c3ccc(-c4ccccc4)cc3)ccc2-c2ccccc2Cl)n1,181 to 185
17,COc1cc(Cc2cnc(N)nc2N)cc2c1OC(C)(C)C=C2Br,238 to 239
18,CCCCCCCC(=O)c1cc2sc3sccc3c2s1,130 to 131
19,CN1CCC(c2c(O)cc(O)c3c(=O)cc(-c4ccccc4O)oc23)C1CO (stereo not given),212 to 213
20,O=c1ccc2c(C(F)(F)F)cc(C(F)(F)F)nc2[nH]1,182 to 184
21,CCCCc1ccc2oc(=O)c(=O)oc2c1,88 to 93
22,CS(=O)(=O)CCCn1c(=NC(=O)c2cccc(Cl)c2)sc2cc(OC(F)(F)F)ccc21,188
